In patent publication US10208019B2, “GLP-1 receptor agonists and uses thereof” (Pfizer Inc., priority 2016, dated 2019):
Counter-ions that a name gives are not always drawn. Like-named read-outs stand apart in the source and are kept apart here.

How the values were obtained:
human GLP-1R [1] = biological target: human GLP-1R (Homo sapiens (Human), UniProt P43220, L260F); experiment: CHO GLP-1R Clone C6—Assay 2: HTRF cAMP cell-based functional agonist assay (low GLP-1R density); details: for EC50: CHO GLP-1R Clone C6, cAMP HTRF, geometric mean; for Emax: read-out: Assay 2 Emax (%)
human GLP-1R [2] = biological target: human GLP-1R (Homo sapiens, UniProt P43220, G168S); experiment: CHO GLP-1R Clone H6—Assay 1: HTRF cAMP cell-based functional agonist assay (high GLP-1R density); details: for EC50: read-out: Assay 1 EC50, CHO GLP-1R Clone H6, cAMP HTRF, geometric mean; for Assay 1 Emax (%): CHO GLP-1R Clone H6
Procedure: GLP-1R-mediated agonist activity was determined with a cell-based functional assay utilizing an HTRF (Homogeneous Time-Resolved Fluorescence) cAMP detection kit (cAMP HI Range Assay Kit; CisBio cat #62AM6PEJ) that measures cAMP levels in the cell. The method is a competitive immunoassay between native cAMP produced by the cells and exogenous cAMP labeled with the dye d2. The tracer binding is visualized by a mAb anti-cAMP labeled with Cryptate. The specific signal (i.e. energy transfer) is inversely proportional to the concentration of cAMP in either standard or experimental sample.
The human GLP-1R coding sequence (NCBI Reference Sequence NP_002053.3, including naturally-occurring variant Gly168Ser) was subcloned into pcDNA3 (Invitrogen) and a cell line stably expressing the receptor was isolated (designated Clone H6).
Cells were removed from cryopreservation, re-suspended in 40 mL of Dulbecco's Phosphate Buffered Saline (DPBS-Lonza Cat #17-512Q) and centrifuged at 800×g for 5 min at 22° C. The cell pellet was then re-suspended in 10 mL of growth medium [DMEM/F12 1:1 Mixture with HEPES, L-Gln, 500 mL (DMEM/F12 Lonza Cat #12-719F), 10% heat inactivated fetal bovine serum (Gibco Cat #16140-071), 5 mL of 100× Pen-Strep (Gibco Cat #15140-122), 5 mL of 100× L-Glutamine (Gibco Cat #25030-081) and 500 μg/mL Geneticin (G418) (Invitrogen #10131035)]. A 1 mL sample of the cell suspension in growth media was counted on a Becton Dickinson ViCell to determine cell viability and cell count per mL. The remaining cell suspension was then adjusted with growth media to deliver 2000 viable cells per well using a Matrix Combi Multidrop reagent dispenser, and the cells were dispensed into a white 384 well tissue culture treated assay plate (Corning 3570). The assay plate was then incubated for 48 hours at 37° C. in a humidified environment in 5% carbon dioxide.
Varying concentrations of each compound to be tested (in DMSO) were diluted in assay buffer (HBSS with Calcium/Magnesium (Lonza/BioWhittaker cat #10-527F)/0.1% BSA (Sigma Aldrich cat #A7409-1L)/20 mM HEPES (Lonza/BioWhiftaker cat #17-737E) containing 100 μM 3-isobutyl-1-methylxanthin (IBMX; Sigma cat #15879). The final DMSO concentration is 1%.
After 48 hours, the growth media was removed from the assay plate wells, and the cells were treated with 20 μL of the serially diluted compound in assay buffer for 30 minutes at 37° C. in a humidified environment in 5% carbon dioxide. Following the 30 minute incubation, 10 μL of labeled d2 cAMP and 10 μL of anti-cAMP antibody (both diluted 1:20 in cell lysis buffer; as described in the manufacturer's assay protocol) were added to each well of the assay plate. The plates were then incubated at room temperature and after 60 minutes, changes in the HTRF signal were read with an Envision 2104 multi-label plate reader using excitation of 330 nm and emissions of 615 and 665 nm. Raw data were converted to nM cAMP by interpolation from a cAMP standard curve (as described in the manufacturer's assay protocol) and the percent effect was determined relative to a saturating concentration of the full agonist GLP-17-36 (1 μM) included on each plate. EC50 determinations were made from agonist dose-response curves analyzed with a curve fitting program using a 4-parameter logistic dose response equation.

[3] = CHO GLP-1R Clone C6, relative to saturating concentration of full agonist GLP-1 (1 μM), arithmetic mean
[4] = read-out: Assay 1 Emax (%), CHO GLP-1R Clone H6, relative to saturating concentration of full agonist GLP-1 (1 μM), arithmetic mean
[5] = relative to saturating concentration of full agonist GLP-1 (1 μM), arithmetic mean

Chain of human GLP-1R (Homo sapiens, UniProt P43220, G168S) (P43220 24-463 G168S limits assumed): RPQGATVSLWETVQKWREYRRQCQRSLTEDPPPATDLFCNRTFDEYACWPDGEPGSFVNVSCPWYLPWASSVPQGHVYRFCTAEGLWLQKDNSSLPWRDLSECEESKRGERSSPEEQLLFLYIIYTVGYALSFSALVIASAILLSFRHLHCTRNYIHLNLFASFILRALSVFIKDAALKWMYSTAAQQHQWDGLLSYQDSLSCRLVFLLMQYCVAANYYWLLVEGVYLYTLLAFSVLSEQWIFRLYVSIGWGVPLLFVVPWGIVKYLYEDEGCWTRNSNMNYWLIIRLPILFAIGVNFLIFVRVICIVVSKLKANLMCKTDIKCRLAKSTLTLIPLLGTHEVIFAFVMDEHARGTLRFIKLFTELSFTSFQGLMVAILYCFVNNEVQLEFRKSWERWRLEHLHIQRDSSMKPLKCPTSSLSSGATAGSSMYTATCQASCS
Chain of human GLP-1R (Homo sapiens (Human), UniProt P43220, L260F) (P43220 24-463 L260F): as the sequence (P43220 24-463 G168S limits assumed) above, with S145G, L237F counted along it

EC50 (human GLP-1R [1]) [nM]	Emax (human GLP-1R [1]; [3]) [%]	EC50 (human GLP-1R [2]) [nM]	Emax (human GLP-1R [2]; [4]) [%]	Compound	Assay 2 Emax (%) (human GLP-1R [1]; [3])	Assay 1 Emax (%) (human GLP-1R [2]; [5])	Emax (human GLP-1R [1]) [%]	Emax (human GLP-1R [2]; read-out: Assay 1 Emax (%)) [%]
910	94	81	77	Cn1c(CN2CCC(c3cccc(OCc4ccc(Cl)cc4F)n3)CC2)nc2ccc(C(=O)O)cc21 [Example 1A-01, 2-((4-(6-((4-Chloro-2-fluorobenzyl)oxy)pyridin-2-yl)piperidin-1-yl)methyl)-1-methyl-1H-benzo[d]imidazole-6-carboxylic acid hydrochloride]	–	–	–	–
190	80	7	59	COC1(Cn2c(CN3CCC(c4cccc(OCc5ccc(Cl)cc5F)n4)CC3)nc3ccc(C(=O)O)cc32)CCC1 [Example 10A-26, 2-[(4-{6-[(4-chloro-2-fluorobenzyl)oxy]pyridin-2-yl}piperidin-1-yl)methyl]-1-[(1-methoxycyclobutyl)methyl]-1H-benzimidazole-6-carboxylic acid]	–	–	–	–
4.4	95	0.3	80	C[C@H]1CN(c2cccc(OCc3ccc(C#N)cc3F)n2)CCN1Cc1nc2ccc(C(=O)O)cc2n1C[C@@H]1CCO1 [Example 10A-47, 2-{[(2S)-4-{6-[(4-cyano-2-fluorobenzyl)oxy]pyridin-2-yl}-2-methylpiperazin-1-yl]methyl}-1-[(2S)-oxetan-2-ylmethyl]-1H-benzimidazole-6-carboxylic acid]	–	–	–	–
160	71	9.4	69	C[C@H]1CN(c2ccc(F)c(OCc3ccc(F)cc3F)n2)CCN1Cc1nc2ccc(C(=O)O)cc2n1C[C@H]1CCO1 [Example 10A-57]	–	–	–	–
570	93	30	73	Cn1cnnc1Cn1c(CN2CCC(c3cccc(OCc4ccc(Cl)cc4F)n3)CC2)nc2ccc(C(=O)O)cc21 [Example 11A-71, 2-[(4-{6-[(4-chloro-2-fluorobenzyl)oxy]pyridin-2-yl}piperidin-1-yl)methyl]-1-[(4-methyl-4H-1,2,4-triazol-3-yl)methyl]-1H-benzimidazole-6-carboxylic acid]	–	–	–	–
4.1	100	0.3	84	C[C@H]1CN(c2cccc(OCc3ccc(Cl)cc3F)n2)CCN1Cc1nc2ccc(C(=O)O)nc2n1C[C@@H]1CCO1 [Example 10A-10, 2-{[(2S)-4-{6-[(4-chloro-2-fluorobenzyl)oxy]pyridin-2-yl}-2-methylpiperazin-1-yl]methyl}-3-[(2S)-oxetan-2-ylmethyl]-3H-imidazo[4,5-b]pyridine-5-carboxylic acid]	–	–	–	–
4100	110	150	86	COC[C@@H]1C[C@H]1Cn1c(CN2CCC(c3cccc(OCc4ccc(Cl)cc4F)n3)CC2)nc2ccc(C(=O)O)cc21 [Example 1A-30, 2-[(4-{6-[(4-chloro-2-fluorobenzyl)oxy]pyridin-2-yl}piperidin-1-yl)methyl]-1-{[(1R,2R)-2-(methoxymethyl)cyclopropyl]methyl}-1H-benzimidazole-6-carboxylic acid]	–	–	–	–
45	82	3.9	82	COCCn1c(CN2CCN(c3ccc(F)c(OCc4ccc(Cl)cc4F)n3)C[C@@H]2C)nc2ccc(C(=O)O)cc21 [Example 1A-07, 2-{[(2S)-4-{6-[(4-chloro-2-fluorobenzyl)oxy]-5-fluoropyridin-2-yl}-2-methylpiperazin-1-yl]methyl}-1-(2-methoxyethyl)-1H-benzimidazole-6-carboxylic acid]	–	–	–	–
540	–	21	–	COCCn1c(CN2CCN(c3cccc(OCc4ccc(Cl)cc4F)n3)C[C@@H]2CO)nc2ccc(C(=O)O)cc21 [Example 12A-09]	80	79	–	–
880	90	44	81	Cn1cnnc1Cn1c(CN2CCC(c3cccc(OCc4ccc(C#N)cc4F)n3)CC2)nc2ccc(C(=O)O)cc21 [Example 1A-20, 2-[(4-{6-[(4-cyano-2-fluorobenzyl)oxy]pyridin-2-yl}piperidin-1-yl)methyl]-1-[(4-methyl-4H-1,2,4-triazol-3-yl)methyl]-1H-benzimidazole-6-carboxylic acid]	–	–	–	–
410	75	11	71	O=C(O)c1ccc2nc(CN3CCC(c4cccc(OCc5ccc(Cl)cc5F)n4)CC3)n(CC3CCC3)c2c1 [Example 11A-16, 2-[(4-{6-[(4-chloro-2-fluorobenzyl)oxy]pyridin-2-yl}piperidin-1-yl)methyl]-1-(cyclobutylmethyl)-1H-benzimidazole-6-carboxylic acid]	–	–	–	–
51	95	2.9	79	Cn1cncc1Cn1c(CN2CCC(c3cccc(OCc4ccc(C#N)cc4F)n3)CC2)nc2ccc(C(=O)O)nc21 [Example 10A-76]	–	–	–	–
6.8	93	0.59	83	CCn1cncc1Cn1c(CN2CCN(c3cccc(OCc4ccc(Cl)cc4F)n3)C[C@@H]2C)nc2ccc(C(=O)O)cc21 [Example 10A-67, 2-{[(2S)-4-{6-[(4-chloro-2-fluorobenzyl)oxy]pyridin-2-yl}-2-methylpiperazin-1-yl]methyl}-1-[(1-ethyl-1H-imidazol-5-yl)methyl]-1H-benzimidazole-6-carboxylic acid]	–	–	–	–
100	79	5.7	67	C[C@H]1CN(c2cccc(OCc3ccc(Cl)cc3F)n2)CCN1Cc1nc2ccc(C(=O)O)cc2n1Cc1cnnn1C [Example 10A-22]	–	–	–	–
35	89	1.5	74	N#Cc1ccc(COc2cccc(N3CCN(Cc4nc5ccc(C(=O)O)cc5n4Cc4cnco4)CC3)n2)c(F)c1 [Example 10A-61, 2-[(4-{6-[(4-cyano-2-fluorobenzyl)oxy]pyridin-2-yl}piperazin-1-yl)methyl]-1-(1,3-oxazol-5-ylmethyl)-1H-benzimidazole-6-carboxylic acid]	–	–	–	–
10	120	0.99	95	C[C@H]1CN(c2cccc(OCc3ccc(C#N)cc3F)n2)CCN1Cc1nc2ccc(C(=O)O)nc2n1C[C@@H]1CCO1 [Example 10A-09, 2-{[(2S)-4-{6-[(4-cyano-2-fluorobenzyl)oxy]pyridin-2-yl}-2-methylpiperazin-1-yl]methyl}-3-[(2S)-oxetan-2-ylmethyl]-3H-imidazo[4,5-b]pyridine-5-carboxylic acid]	–	–	–	–
490	98	44	72	CC(F)(F)Cn1c(CN2CCC(c3cccc(OCc4ccc(Cl)cc4F)n3)CC2)nc2ccc(C(=O)O)cc21 [Example 11A-27, 2-[(4-{6-[(4-chloro-2-fluorobenzyl)oxy]pyridin-2-yl}piperidin-1-yl)methyl]-1-(2,2-difluoropropyl)-1H-benzimidazole-6-carboxylic acid]	–	–	–	–
22	96	0.5	73	O=C(O)c1ccc2nc(CN3CCC(c4cccc(OCc5ccc(Cl)cc5F)n4)CC3)n(C[C@@H]3CCO3)c2n1 [Example 2A-23, 2-[(4-{6-[(4-chloro-2-fluorobenzyl)oxy]pyridin-2-yl}piperidin-1-yl)methyl]-3-[(2S)-oxetan-2-ylmethyl]-3H-imidazo[4,5-b]pyridine-5-carboxylic acid]	–	–	–	–
2.2	97	0.34	89	CCn1cncc1Cn1c(CN2CCC(c3cccc(OCc4ccc(Cl)cc4F)n3)CC2)nc2ccc(C(=O)O)cc21 [Example 10A-02, 2-[(4-{6-[(4-chloro-2-fluorobenzyl)oxy]pyridin-2-yl}piperidin-1-yl)methyl]-1-[(1-ethyl-1H-imidazol-5-yl)methyl]-1H-benzimidazole-6-carboxylic acid]	–	–	–	–
3.8	93	0.3	93	CCn1cncc1Cn1c(CN2CCN(c3cccc(OCc4ccc(C#N)cc4F)n3)CC2)nc2ccc(C(=O)O)cc21 [Example 10A-35, 2-[(4-{6-[(4-cyano-2-fluorobenzyl)oxy]pyridin-2-yl}piperazin-1-yl)methyl]-1-[(1-ethyl-1H-imidazol-5-yl)methyl]-1H-benzimidazole-6-carboxylic acid]	–	–	–	–
280	91	22	87	COCCn1c(CN2CCC(c3cccc(OCc4ccc(C#N)cc4)n3)CC2)nc2ccc(C(=O)O)c(F)c21 [Example 2A-15, 2-[(4-{6-[(4-cyanobenzyl)oxy]pyridin-2-yl}piperidin-1-yl)methyl]-7-fluoro-1-(2-methoxyethyl)-1H-benzimidazole-6-carboxylic acid]	–	–	–	–

Compound	EC50 (human GLP-1R [1]) [nM]	Emax (human GLP-1R [1]; [3]) [%]	EC50 (human GLP-1R [2]) [nM]	Emax (human GLP-1R [2]; [4]) [%]	Assay 2 Emax (%) (human GLP-1R [1]; [3])	Assay 1 Emax (%) (human GLP-1R [2]; [5])	Emax (human GLP-1R [1]) [%]	Emax (human GLP-1R [2]; read-out: Assay 1 Emax (%)) [%]
Cn1c(CN2CCC(c3cccc(OCc4ccc(Cl)cc4F)n3)CC2)nc2ccc(C(=O)O)nc21 [Example 2A-01, 2-((4-(6-((4-Chloro-2-fluorobenzyl)oxy)pyridin-2-yl)piperidin-1-yl)methyl)-3-methyl-3H-imidazo[4,5-b]pyridine-5-carboxylic acid hydrochloride]	1800	–	90	–	–	–	89	76
C[C@H]1CN(c2cccc(OCc3ccc(C#N)cc3F)n2)CCN1Cc1nc2ccc(C(=O)O)cc2n1CC1CCCO1 (single isomer, unassigned; diastereomer 1) [Example 14A-11]	140	–	7	–	71	65	–	–
C[C@H]1CN(c2cccc(OCc3ccc(C#N)cc3F)n2)CCN1Cc1nc2ccc(C(=O)O)cc2n1CC1CCCO1 (single isomer, unassigned; diastereomer 2) [Example 14A-12]	20	–	1.4	–	–	–	–	–
